Measurements: patent US8217013B2, “Polyene diester antibiotics” (priority 2007, dated 2012)
Like-named read-outs stand apart in the source and are kept apart here.

Experiments:
Assay in all cases: Test of antibacterial activity in vitro (bacteria-inhibition zone)
Type in all cases: cell-based
[1] = system: Candida mycoderma
Description: (§1) Test of Antibacterial Activity In Vitro
(§2) Experiment drugs: the polyene diester compounds prepared by examples 1-12
(§3) Control drugs: amphotericin B (standard product) • mycostatin (standard product) • natamycin (standard product)
2.3 Preparation of Candida mycoderrna suspension: the method is as same as preparation of Saccharomyces cerevisiae suspension
(§4) Taking appropriate amount of the above mentioned amphotericin B, mycostatin, natamycin and the polyene diester compounds prepared by examples 1-8 and 10-12, dissolving in a little dimethyl sulfoxide respectively, using pH7 phosphate buffer to dilute into solution which is equivalent to contain amphotericin B, mycostatin, natamycin 280 Units per milliliter, taking 1 ml and using pH7 phosphate buffer to quantitatively dilute into solution which is equivalent to contain amphotericin B 1.4 μg/ml and 2.8 μg/ml, and is equivalent to contain 5.6 μg/ml of mycostatin and natamycin.
(§5) In addition, preparing the solution according to the same method, adding 40% defibered sheep serum, using pH7 phosphate buffer to quantitatively dilute into unit solution which is equivalent to contain amphotericin B 1.4 μg/ml and 2.8 μg/ml, and is equivalent to contain 5.6 μg/ml of mycostatin and natamycin. Testing according to PHARMACOPOEIA OF THE PEOPLES REPUBLIC OF CHINA, second part, 2005 edition, appendix XIA The Antibiotics Microorganism Test.
(§6) Medium: Improved Martin Agar Medium, PHARMACOPOEIA OF THE PEOPLES REPUBLIC OF CHINA, second part, 2005 edition, appendix p 84.
(§7) Test method: Double-plate counting method; […] bacteria bed 15 ml to replace the double layers, culture temperature: 37° C., time: 24 h; strain concentration: 1%
(§8) Medium: Modified Martin Broth Medium

[2] = system: Saccharomyces cerevisiae; conditions: for zone of inhibition at 5.6 µg/mL: Saccharomyces cerevisiae
Description: as §1, §2, §3
2.2 Preparation of Saccharomyces cerevisiae suspension: PHARMACOPOEIA OF THE PEOPLES REPUBLIC OF CHINA, second part, 2005 edition, appendix p 80, p 83.
as §4, §5, §6, §7, §8

[3] = system: Candida albicans; conditions: 5.6 μg/ml after conversion; for zone of inhibition at 5.6 µg/mL: Candida albicans
Description: as §1, §2, §3
2.1 Preparation of Candida albicans suspension: PHARMACOPOEIA OF THE PEOPLES REPUBLIC OF CHINA, second part, 2005 edition, appendix p 81-84.
as §4, §5, §6
Test method: Double-plate counting method; […] bacteria bed 15 ml to replace the double layers, culture temperature: 37° C., time: 24 h; strain concentration: 1% […]

[4] = 0 h, 2.8 μg/ml after conversion, no serum
[5] = 0 h, 2.8 μg/ml after conversion, serum added (40% defibered sheep serum)
[6] = 6 h, 2.8 μg/ml after conversion, no serum
[7] = 24 h, 2.8 μg/ml after conversion, no serum
[8] = 48 h, 2.8 μg/ml after conversion, no serum
[9] = 0 h, 5.6 μg/ml after conversion, no serum, read-out: diameter of the bacteria-inhibition zone, Candida mycoderma 0 h
[10] = 6 h, 5.6 μg/ml after conversion, no serum, read-out: diameter of the bacteria-inhibition zone, Candida mycoderma 6 h
[11] = 24 h, 5.6 μg/ml after conversion, no serum, read-out: diameter of the bacteria-inhibition zone, Candida mycoderma 24 h
[12] = 48 h, 5.6 μg/ml after conversion, no serum, read-out: diameter of the bacteria-inhibition zone, Candida mycoderma 48 h
[13] = 0 h, 5.6 μg/ml after conversion, no serum, read-out: diameter of the bacteria-inhibition zone, Saccharomyces cerevisiae 0 h
[14] = 0 h, 5.6 μg/ml after conversion, serum added (40% defibered sheep serum), read-out: diameter of the bacteria-inhibition zone, Saccharomyces cerevisiae 0 h
[15] = 6 h, 5.6 μg/ml after conversion, no serum, read-out: diameter of the bacteria-inhibition zone, Saccharomyces cerevisiae 6 h
[16] = 6 h, 5.6 μg/ml after conversion, serum added (40% defibered sheep serum), read-out: diameter of the bacteria-inhibition zone, Saccharomyces cerevisiae 6 h
[17] = 24 h, 5.6 μg/ml after conversion, no serum, read-out: diameter of the bacteria-inhibition zone, Saccharomyces cerevisiae 24 h
[18] = 24 h, 5.6 μg/ml after conversion, serum added (40% defibered sheep serum), read-out: diameter of the bacteria-inhibition zone, Saccharomyces cerevisiae 24 h
[19] = 48 h, 5.6 μg/ml after conversion, no serum, read-out: diameter of the bacteria-inhibition zone, Saccharomyces cerevisiae 48 h
[20] = 48 h, 5.6 μg/ml after conversion, serum added (40% defibered sheep serum), read-out: diameter of the bacteria-inhibition zone, Saccharomyces cerevisiae 48 h
[21] = 0 h, serum added (40% defibered sheep serum)
[22] = 6 h, serum added (40% defibered sheep serum)
[23] = 24 h, serum added (40% defibered sheep serum)
[24] = 48 h, serum added (40% defibered sheep serum)
[25] = 0 h, no serum, read-out: diameter of the bacteria-inhibition zone, Candida albicans 0 h
[26] = 6 h, no serum, read-out: diameter of the bacteria-inhibition zone, Candida albicans 6 h
[27] = 24 h, no serum, read-out: diameter of the bacteria-inhibition zone, Candida albicans 24 h
[28] = 48 h, no serum, read-out: diameter of the bacteria-inhibition zone, Candida albicans 48 h
[29] = 0 h, 5.6 μg/ml after conversion, no serum
[30] = 0 h, 5.6 μg/ml after conversion, serum added (40% defibered sheep serum)
[31] = 6 h, 5.6 μg/ml after conversion, no serum
[32] = 6 h, 5.6 μg/ml after conversion, serum added (40% defibered sheep serum)
[33] = 24 h, 5.6 μg/ml after conversion, no serum
[34] = 48 h, 5.6 μg/ml after conversion, no serum

Compound | diameter of the bacteria-inhibition zone, Candida mycoderma 0 h [1, 4] | diameter of the bacteria-inhibition zone, Candida mycoderma 0 h [1, 5] | diameter of the bacteria-inhibition zone, Candida mycoderma 6 h [1, 6] | diameter of the bacteria-inhibition zone, Candida mycoderma 24 h [1, 7] | diameter of the bacteria-inhibition zone, Candida mycoderma 48 h [1, 8] | diameter of the bacteria-inhibition zone, Saccharomyces cerevisiae 0 h [2, 4] | diameter of the bacteria-inhibition zone, Saccharomyces cerevisiae 0 h [2, 5] | diameter of the bacteria-inhibition zone, Saccharomyces cerevisiae 6 h [2, 6] | diameter of the bacteria-inhibition zone, Saccharomyces cerevisiae 24 h [2, 7] | diameter of the bacteria-inhibition zone, Saccharomyces cerevisiae 48 h [2, 8] | zone of inhibition at 5.6 µg/mL [1, 9] [mm] | zone of inhibition at 5.6 µg/mL [1, 10] [mm] | zone of inhibition at 5.6 µg/mL [1, 11] [mm] | zone of inhibition at 5.6 µg/mL [1, 12] [mm] | zone of inhibition at 5.6 µg/mL [2, 13] [mm] | zone of inhibition at 5.6 µg/mL [2, 14] [mm] | diameter of the bacteria-inhibition zone, Candida albicans 0 h [3, 21] | diameter of the bacteria-inhibition zone, Candida albicans 6 h [3, 22] | diameter of the bacteria-inhibition zone, Candida albicans 24 h [3, 23] | diameter of the bacteria-inhibition zone, Candida albicans 48 h [3, 24] | other results
CCOC(=O)OC(C)OC(=O)[C@H]1[C@@H]2C[C@@H](OC3OC(C)C(O)C(N)C3O)/C=C/C=C/C=C/C=C/C=C/C=C/C=C/[C@H](C)[C@@H](O)[C@@H](C)[C@H](C)OC(=O)C[C@H](O)C[C@H](O)CC[C@@H](O)[C@H](O)C[C@H](O)C[C@](O)(C[C@@H]1O)O2 (stereo partly drawn) [amphotericin B ethoxycarbonyloxyethyl ester] | + (7-9 mm: +) | + (7-9 mm: +) | + (7-9 mm: +) | + (7-9 mm: +) | + (7-9 mm: +) | ++ (9-12 mm: ++) | ++ (9-12 mm: ++) | ++ (9-12 mm: ++) | ++ (9-12 mm: ++) | ++ (9-12 mm: ++) | – | – | – | – | – | – | – | – | – | – | diameter of the bacteria-inhibition zone, Candida mycoderma 6 h ([1]; 6 h, 2.8 μg/ml after conversion, serum added (40% defibered sheep serum)): ++ (9-12 mm: ++)
CC1OC(OC2/C=C/C=C/C=C/C=C/CC/C=C/C=C/C(C)[C@@H](O)[C@@H](C)[C@H](C)OC(=O)CC(O)CC(O)CC(O)CCC(O)C(O)C[C@]3(O)CC(O)C(C(=O)O)C(C2)O3)C(O)C(N)C1O (stereo partly drawn) [mycostatin, reference compound] | – | – | – | – | – | – | – | – | – | – | 12 to 14 | 12 to 14 | 12 to 14 | 12 to 14 | 14 to 16 | 14 to 16 | + (7-9 mm: +) | + (7-9 mm: +) | + (7-9 mm: +) | + (7-9 mm: +) | zone of inhibition at 5.6 µg/mL [2, 15]: 14 to 16 mm; zone of inhibition at 5.6 µg/mL [2, 16]: 14 to 16 mm; zone of inhibition at 5.6 µg/mL [2, 17]: 14 to 16 mm; zone of inhibition at 5.6 µg/mL [2, 18]: 14 to 16 mm; zone of inhibition at 5.6 µg/mL [2, 19]: 14 to 16 mm; zone of inhibition at 5.6 µg/mL [2, 20]: 14 to 16 mm; zone of inhibition at 5.6 µg/mL [3, 25]: 7 to 9 mm; zone of inhibition at 5.6 µg/mL [3, 26]: 7 to 9 mm; zone of inhibition at 5.6 µg/mL [3, 27]: 7 to 9 mm; zone of inhibition at 5.6 µg/mL [3, 28]: 7 to 9 mm
C[C@@H]1C/C=C/C=C/C=C/C=C/[C@H](O[C@@H]2O[C@H](C)[C@@H](O)[C@H](N)[C@@H]2O)C[C@@H]2O[C@](O)(C[C@@H](O)C[C@H]3O[C@@H]3/C=C/C(=O)O1)C[C@H](O)[C@H]2C(=O)O [Natamycin, natamycin, reference compound] | – | – | – | – | – | – | – | – | – | – | 12 to 14 | 12 to 14 | 12 to 14 | 12 to 14 | 14 to 16 | 12 to 14 | ++ (9-12 mm: ++) | ++ (9-12 mm: ++) | ++ (9-12 mm: ++) | ++ (9-12 mm: ++) | zone of inhibition at 5.6 µg/mL [2, 15]: 14 to 16 mm; zone of inhibition at 5.6 µg/mL [2, 16]: 12 to 14 mm; zone of inhibition at 5.6 µg/mL [2, 17]: 14 to 16 mm; zone of inhibition at 5.6 µg/mL [2, 18]: 12 to 14 mm; zone of inhibition at 5.6 µg/mL [2, 19]: 14 to 16 mm; zone of inhibition at 5.6 µg/mL [2, 20]: 12 to 14 mm; zone of inhibition at 5.6 µg/mL [3, 25]: 9 to 12 mm; zone of inhibition at 5.6 µg/mL [3, 26]: 9 to 12 mm; zone of inhibition at 5.6 µg/mL [3, 27]: 9 to 12 mm; zone of inhibition at 5.6 µg/mL [3, 28]: 9 to 12 mm
CCOC(=O)OC(C)OC(=O)[C@H]1[C@@H]2C[C@@H](O[C@@H]3OC(C)[C@@H](O)[C@@H](N)[C@H]3O)/C=C/C=C/C=C/C=C/C[C@@H](C)OC(=O)/C=C/[C@H]3O[C@@H]3C[C@H](O)C[C@](O)(C[C@@H]1O)O2 (stereo partly drawn) [natamycin ethoxycarbonyloxyethyl ester] | – | – | – | – | – | – | – | – | – | – | – | – | – | – | – | – | + (7-9 mm: +) | ++ (9-12 mm: ++) | ++ (9-12 mm: ++) | ++ (9-12 mm: ++) | diameter of the bacteria-inhibition zone, Candida mycoderma 0 h [1, 29]: + (7-9 mm: +); diameter of the bacteria-inhibition zone, Candida mycoderma 0 h [1, 30]: + (7-9 mm: +); diameter of the bacteria-inhibition zone, Candida mycoderma 6 h [1, 31]: + (7-9 mm: +); diameter of the bacteria-inhibition zone, Candida mycoderma 6 h [1, 32]: ++ (9-12 mm: ++); diameter of the bacteria-inhibition zone, Candida mycoderma 24 h [1, 33]: + (7-9 mm: +); diameter of the bacteria-inhibition zone, Candida mycoderma 48 h [1, 34]: + (7-9 mm: +); diameter of the bacteria-inhibition zone, Saccharomyces cerevisiae 0 h [2, 29]: + (7-9 mm: +); diameter of the bacteria-inhibition zone, Saccharomyces cerevisiae 0 h [2, 30]: + (7-9 mm: +); diameter of the bacteria-inhibition zone, Saccharomyces cerevisiae 6 h [2, 31]: + (7-9 mm: +); diameter of the bacteria-inhibition zone, Saccharomyces cerevisiae 6 h [2, 32]: ++ (9-12 mm: ++); diameter of the bacteria-inhibition zone, Saccharomyces cerevisiae 24 h [2, 33]: + (7-9 mm: +); diameter of the bacteria-inhibition zone, Saccharomyces cerevisiae 48 h [2, 34]: + (7-9 mm: +); diameter of the bacteria-inhibition zone, Candida albicans 0 h ([3]; 0 h, no serum): + (7-9 mm: +); diameter of the bacteria-inhibition zone, Candida albicans 6 h ([3]; 6 h, no serum): + (7-9 mm: +); diameter of the bacteria-inhibition zone, Candida albicans 24 h ([3]; 24 h, no serum): + (7-9 mm: +); diameter of the bacteria-inhibition zone, Candida albicans 48 h ([3]; 48 h, no serum): + (7-9 mm: +)
amphotericin B ethyl acetate | ++ (9-12 mm: ++) | ++ (9-12 mm: ++) | ++ (9-12 mm: ++) | ++ (9-12 mm: ++) | ++ (9-12 mm: ++) | + (7-9 mm: +) | ++ (9-12 mm: ++) | + (7-9 mm: +) | + (7-9 mm: +) | + (7-9 mm: +) | – | – | – | – | – | – | – | – | – | – | –
